Target: c-Src (Homo sapiens, UniProt P12931)
Assay: c-Src protein kinase assay
Type: biochemical
Conditions: Table 5
Protocol: Several of the invention compounds have been evaluated in a standard assay to measure their ability to inhibit cellular Src protein kinase (c-Src). […] The assay was carried out as follows:
C-Src kinase was purified from baculovirus infected insect cell lysates using an antipeptide monoclonal antibody directed against the N-terminal amino acids (amino acids 2-17) of c-Src. The antibody, covalently linked to 0.65 μm latex beads, was added to a suspension of insect cell lysis buffer comprised of 150 mM NaCl, 50 mM Tris pH 7.5, 1 mM DTT, 1% NP-40, 2 mM EGTA, 1 mM sodium vanadate, 1 mM PMSF, 1 μg/mL each of leupeptin, pepstatin, and aprotinin. Insect cell lysate containing c-Src protein was incubated with these beads for 3 to 4 hours at 4° C. with rotation. At the end of the lysate incubation, the beads were rinsed three times in lysis buffer, resuspended in lysis buffer containing 10% glycerol, and frozen. These latex beads were thawed, rinsed three times in assay buffer (40 mM Tris, pH 7.5, 5 mM […]) and suspended in the same buffer. […] The filters were then punched, counted in a liquid scintillation counter, and the data examined for inhibitory activity in comparison to a known inhibitor such as erbstatin. […]

Sequence of c-Src (P12931 whole entry, species assumed): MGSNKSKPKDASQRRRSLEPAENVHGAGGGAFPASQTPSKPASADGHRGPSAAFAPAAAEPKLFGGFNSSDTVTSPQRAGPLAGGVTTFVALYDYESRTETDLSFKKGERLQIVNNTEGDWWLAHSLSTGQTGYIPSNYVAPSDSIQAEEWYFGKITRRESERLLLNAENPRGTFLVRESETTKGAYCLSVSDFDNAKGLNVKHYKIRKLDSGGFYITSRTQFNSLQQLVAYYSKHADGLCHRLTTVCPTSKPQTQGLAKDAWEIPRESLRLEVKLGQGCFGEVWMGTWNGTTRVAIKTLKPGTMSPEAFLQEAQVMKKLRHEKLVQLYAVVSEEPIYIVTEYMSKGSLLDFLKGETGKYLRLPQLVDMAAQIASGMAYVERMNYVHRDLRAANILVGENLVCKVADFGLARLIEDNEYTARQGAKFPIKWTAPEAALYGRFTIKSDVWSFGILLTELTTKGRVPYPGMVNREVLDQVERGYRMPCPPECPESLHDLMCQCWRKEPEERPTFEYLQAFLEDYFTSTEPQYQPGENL

## CC1CN(c2ccc(Nc3ncc4ccc(=O)n(C5CCCCC5)c4n3)cc2)CC(C)N1CCO (stereo not shown) [Example 143, 8-Cyclohexyl-2-{4-[4-(2-hydroxy-ethyl)-3,5-dimethyl-piperazin-1-yl]-phenylamino}-8H-pyrido[2,3-d]pyrimidin-7-one]
  IC50: 1850 nM

From patent US6498163B1, “Pyrido[2,3-D]pyrimidines and 4-aminopyrimidines as inhibitors of cellular proliferation” (Warner-Lambert Company, priority 1997, dated 2002)
